Test results reported in ChEMBL document CHEMBL5505983, “Design, synthesis, and molecular modeling studies of novel 2-quinolone-1,2,3-triazole-α-aminophosphonates hybrids as dual antiviral and antibacterial agents” (Eur J Med Chem, 2024).
Values after ≈ are worked out from the molar mass of the structure shown.

Key:
[1] = Cytotoxicity against human Huh-7 cells; type: toxicity, cell-based
[2] = Cytotoxicity against African green monkey Vero E6 cells; type: toxicity, cell-based, Vero C1008; settings: chlorocebus sabaeus
[3] = Selectivity index, ratio of CC50 for African green monkey Vero A cells to IC50 for CHIKV infected in African green monkey Vero A cells; type: toxicity; settings: read-out: Ratio CC50/IC50
Enterococcus faecalis [4] = experiment: Ratio of MBC to MIC for Enterococcus faecalis; type: functional
Enterococcus faecalis [5] = experiment: Antibacterial activity against Enterococcus faecalis assessed as reduction in bacterial growth by micro-broth dilution method; type: functional
Pseudomonas aeruginosa [6] = experiment: Bactericidal activity against Pseudomonas aeruginosa CIP A22; type: functional
Staphylococcus aureus [7] = experiment: Bactericidal activity against Staphylococcus aureus CIP 54127; type: functional
[8] = Cytotoxicity against human RD cells; type: toxicity, cell-based
[9] = Cytotoxicity against human HeLa-RH cells; type: toxicity, cell-based
Human rhinovirus sp. [10] = experiment: Antiviral activity against Human rhinovirus A2 infected in human HeLa-RH cells assessed as inhibition of cytopathic effect by microscopy based analysis; type: functional, organism-based
Yellow fever virus = experiment: Antiviral activity against Yellow fever virus infected in human Huh-7 cells assessed as inhibition of cytopathic effect by microscopy based analysis; type: functional, organism-based
Enterovirus A71 = experiment: Antiviral activity against human EV71 infected in human RD cells assessed as inhibition of cytopathic effect by microscopy based analysis; type: functional, organism-based; settings: Enterovirus A
[11] = Selectivity index, ratio of CC50 for human RD cells to IC50 for human EV71 infected in human RD cells; type: toxicity, cell-based; settings: read-out: Ratio CC50/IC50
Staphylococcus aureus [12] = experiment: Antibacterial activity against Staphylococcus aureus CIP 54127 assessed as reduction in bacterial growth by micro-broth dilution method; type: functional
Human rhinovirus sp. [13] = experiment: Antiviral activity against Human rhinovirus B14 infected in human HeLa-RH cells assessed as inhibition of cytopathic effect by microscopy based analysis; type: functional, organism-based
Pseudomonas aeruginosa [14] = experiment: Antibacterial activity against Pseudomonas aeruginosa CIP A22 assessed as reduction in bacterial growth by micro-broth dilution method; type: functional
Enterococcus faecalis [15] = experiment: Bactericidal activity against Enterococcus faecalis; type: functional
Escherichia coli [16] = experiment: Antibacterial activity against Escherichia coli CIP 53154 assessed as reduction in bacterial growth by micro-broth dilution method; type: functional
Staphylococcus aureus [17] = experiment: Ratio of MBC to MIC for Staphylococcus aureus CIP 54127; type: functional
Escherichia coli [18] = experiment: Bactericidal activity against Escherichia coli CIP 53154; type: functional
Zika virus = experiment: Antiviral activity against Zika virus infected in african green monkey Vero E6 cells assessed as inhibition of cytopathic effect by microscopy based analysis; type: functional, organism-based; settings: Vero C1008
Escherichia coli [19] = experiment: Ratio of MBC to MIC for Escherichia coli CIP 53154; type: functional
Pseudomonas aeruginosa [20] = experiment: Ratio of MBC to MIC for Pseudomonas aeruginosa CIP A22; type: functional
[21] = Cytotoxicity against African green monkey Vero A cells; type: toxicity, cell-based; settings: chlorocebus sabaeus
Chikungunya virus = experiment: Antiviral activity against CHIKV infected in African green monkey Vero A cells assessed as inhibition of cytopathic effect by microscopy based analysis; type: functional, organism-based
[22] = Selectivity index, ratio of CC50 for human HeLa-RH cells to IC50 for Human rhinovirus B14 infected in human HeLa-RH cells; type: toxicity, cell-based; settings: read-out: Ratio CC50/IC50
[23] = Selectivity index, ratio of CC50 for human HeLa-RH cells to IC50 for Human rhinovirus A2 infected in human HeLa-RH cells; type: toxicity, cell-based; settings: read-out: Ratio CC50/IC50
SARS-CoV-2 = experiment: Antiviral activity against SARS-CoV-2 HCoV-19/Egypt/NRC-03/2020 infected in African green monkey Vero E6 cells assessed as inhibition of virus induced cytopathic effect pre-infected with virus for 1 hr followed by compound addition and measured after 72 hrs by crystal violet staining based analysis; type: functional, organism-based; settings: Severe acute respiratory syndrome coronavirus 2, HCoV-19/Egypt/NRC-03/2020, Vero C1008
[24] = Selectivity index, ratio of CC50 for human Huh-7 cells to IC50 for Yellow fever virus infected in human Huh-7 cells; type: toxicity, cell-based; settings: read-out: Ratio CC50/IC50
[25] = Selectivity index, ratio of CC50 for African green monkey Vero E6 cells to IC50 for Zika virus infected in african green monkey Vero E6 cells; type: toxicity; settings: read-out: Ratio CC50/IC50

In the case of `Cc1cc(=O)n(Cc2cn(Cc3ccc(O)c(C=O)c3)nn2)c2ccc(Br)cc12`, the CC50 [1] is reported as 29.6 µM, the CC50 [2] is reported as 52.7 µM and the selectivity ratio [3] is reported as greater than 1.02. It also gave a Ratio (Enterococcus faecalis [4]) of 1, an MIC (Enterococcus faecalis [5]) of 340 µM (≈ 154 µg/mL) and an MBC (Pseudomonas aeruginosa [6]) of 2760 µM (≈ 1250 µg/mL). For the same compound, the MBC (Staphylococcus aureus [7]) was 11000 µM (≈ 5000 µg/mL), the CC50 [8] was 44.1 µM and the CC50 [9] was 8.61 µM. For the same compound, the IC50 (Human rhinovirus sp. [10]) was greater than 1.23 µM, the IC50 (Yellow fever virus) was greater than 100 µM and the IC50 (Enterovirus A71) was 33.3 µM. The selectivity ratio [11] was 1.33, the MIC (Staphylococcus aureus [12]) was 11000 µM (≈ 5000 µg/mL) and the IC50 (Human rhinovirus sp. [13]) was greater than 100 µM. For the same compound, the MIC (Pseudomonas aeruginosa [14]) was 2760 µM (≈ 1250 µg/mL), the MBC (Enterococcus faecalis [15]) was 340 µM (≈ 154 µg/mL) and the MIC (Escherichia coli [16]) was 5520 µM (≈ 2500 µg/mL). The Ratio (Staphylococcus aureus [17]) was 1, the MBC (Escherichia coli [18]) was 11000 µM (≈ 5000 µg/mL) and the IC50 (Zika virus) was greater than 100 µM. For the same compound, the Ratio (Escherichia coli [19]) was 2, the Ratio (Pseudomonas aeruginosa [20]) was 1 and the CC50 [21] was greater than 100 µM. It also gave an IC50 (Chikungunya virus) of 98.5 µM.
`Cc1cc(=O)n(Cc2cn(Cc3ccc(O)c(C=O)c3)nn2)c2ccc(F)cc12` gave a CC50 [1] of 27.8 µM, a CC50 [2] of 55 µM and a Ratio (Enterococcus faecalis [4]) of 2. For the same compound, the MIC (Enterococcus faecalis [5]) was 200 µM (≈ 78.5 µg/mL), the MBC (Pseudomonas aeruginosa [6]) was 3190 µM (≈ 1250 µg/mL) and the MBC (Staphylococcus aureus [7]) was 3190 µM (≈ 1250 µg/mL). The CC50 [8] was 43 µM, the CC50 [9] was 14.5 µM and the IC50 (Human rhinovirus sp. [10]) was greater than 1.23 µM. For the same compound, the IC50 (Yellow fever virus) was greater than 100 µM, the IC50 (Enterovirus A71) was 29.9 µM and the selectivity ratio [11] was 1.44. It also gave an MIC (Staphylococcus aureus [12]) of 3190 µM (≈ 1250 µg/mL), an IC50 (Human rhinovirus sp. [13]) greater than 100 µM and an MIC (Pseudomonas aeruginosa [14]) of 3190 µM (≈ 1250 µg/mL). It also gave an MBC (Enterococcus faecalis [15]) of 400 µM (≈ 157 µg/mL), an MIC (Escherichia coli [16]) of 6370 µM (≈ 2500 µg/mL) and a Ratio (Staphylococcus aureus [17]) of 1. The MBC (Escherichia coli [18]) was 6370 µM (≈ 2500 µg/mL), the IC50 (Zika virus) was greater than 100 µM and the Ratio (Escherichia coli [19]) was 1. It also gave a Ratio (Pseudomonas aeruginosa [20]) of 2.01, a CC50 [21] greater than 100 µM and an IC50 (Chikungunya virus) greater than 100 µM.
`Cc1cc(CCCOc2c(C)cc(-c3noc(C(F)(F)F)n3)cc2C)on1` [PLECONARIL] showed a CC50 [9] greater than 100 µM, an IC50 (Human rhinovirus sp. [10]) of 0.44 µM and a selectivity ratio [22] greater than 500. For the same compound, the IC50 (Human rhinovirus sp. [13]) was 0.2 µM and the selectivity ratio [23] was greater than 227.
`CCOP(=O)(OCC)C(Nc1ccc(I)cc1)c1cc(Cn2cc(Cn3c(=O)cc(C)c4cc(F)ccc43)nn2)ccc1O` (stereo not given) showed a CC50 [1] of 12.1 µM, a CC50 [2] greater than 100 µM and a selectivity ratio [3] greater than 3.03. For the same compound, the Ratio (Enterococcus faecalis [4]) was 1, the MIC (Enterococcus faecalis [5]) was 50 µM (≈ 36.6 µg/mL) and the MBC (Pseudomonas aeruginosa [6]) was 1710 µM (≈ 1250 µg/mL). For the same compound, the MBC (Staphylococcus aureus [7]) was 220 µM (≈ 161 µg/mL), the CC50 [8] was greater than 100 µM and the CC50 [9] was greater than 33.3 µM. For the same compound, the IC50 (Human rhinovirus sp. [10]) was greater than 33.3 µM, the IC50 (Yellow fever virus) was greater than 33.3 µM and the IC50 (Enterovirus A71) was greater than 100 µM. For the same compound, the selectivity ratio [22] was greater than 3.06, the MIC (Staphylococcus aureus [12]) was 110 µM (≈ 80.5 µg/mL) and the IC50 (Human rhinovirus sp. [13]) was 10.9 µM. For the same compound, the MIC (Pseudomonas aeruginosa [14]) was 1710 µM (≈ 1250 µg/mL), the MBC (Enterococcus faecalis [15]) was 50 µM (≈ 36.6 µg/mL) and the MIC (Escherichia coli [16]) was 860 µM (≈ 629 µg/mL). It also gave a Ratio (Staphylococcus aureus [17]) of 2, an MBC (Escherichia coli [18]) of 1710 µM (≈ 1250 µg/mL) and an IC50 (Zika virus) greater than 100 µM. The Ratio (Escherichia coli [19]) was 1.99, the Ratio (Pseudomonas aeruginosa [20]) was 1 and the CC50 [21] was greater than 100 µM. For the same compound, the IC50 (Chikungunya virus) was 33 µM.
For `Fc1ccc2nc(C(F)(F)F)cc(OCc3cn(-c4ccccc4Cl)nn3)c2c1`, the IC50 (SARS-CoV-2) was 60 µM.
In the case of `CCOP(=O)(OCC)C(Nc1ccccc1Cl)c1cc(Cn2cc(Cn3c(=O)cc(C)c4cc(Br)ccc43)nn2)ccc1O` (stereo not given), the CC50 [1] is reported as 20 µM, the CC50 [2] is reported as greater than 100 µM and the Ratio (Enterococcus faecalis [4]) is reported as 1. It also gave an MIC (Enterococcus faecalis [5]) of 60 µM (≈ 42.1 µg/mL), an MBC (Pseudomonas aeruginosa [6]) of 1780 µM (≈ 1250 µg/mL) and an MBC (Staphylococcus aureus [7]) of 440 µM (≈ 308 µg/mL). It also gave a CC50 [8] greater than 100 µM, a CC50 [9] of 9.88 µM and an IC50 (Human rhinovirus sp. [10]) greater than 0.41 µM. The IC50 (Yellow fever virus) was 9.91 µM, the IC50 (Enterovirus A71) was greater than 100 µM and the selectivity ratio [24] was 2.02. It also gave an MIC (Staphylococcus aureus [12]) of 440 µM (≈ 308 µg/mL), an IC50 (Human rhinovirus sp. [13]) greater than 33.3 µM and an MIC (Pseudomonas aeruginosa [14]) of 1780 µM (≈ 1250 µg/mL). For the same compound, the MBC (Enterococcus faecalis [15]) was 60 µM (≈ 42.1 µg/mL), the MIC (Escherichia coli [16]) was 440 µM (≈ 308 µg/mL) and the Ratio (Staphylococcus aureus [17]) was 1. The selectivity ratio [25] was greater than 1.4, the MBC (Escherichia coli [18]) was 440 µM (≈ 308 µg/mL) and the IC50 (Zika virus) was 71.5 µM. It also gave a Ratio (Escherichia coli [19]) of 1, a Ratio (Pseudomonas aeruginosa [20]) of 4.05 and a CC50 [21] of 7.58 µM. The IC50 (Chikungunya virus) was greater than 100 µM.
`CCOP(=O)(OCC)C(Nc1ccccc1)c1cc(Cn2cc(Cn3c(=O)cc(C)c4cc(Br)ccc43)nn2)ccc1O` (stereo not given) showed a CC50 [1] of 52 µM, a CC50 [2] greater than 100 µM and a selectivity ratio [3] greater than 2.5. The Ratio (Enterococcus faecalis [4]) was 2, the MIC (Enterococcus faecalis [5]) was 60 µM (≈ 40 µg/mL) and the MBC (Pseudomonas aeruginosa [6]) was 3750 µM (≈ 2500 µg/mL). It also gave an MBC (Staphylococcus aureus [7]) of 240 µM (≈ 160 µg/mL), a CC50 [8] greater than 100 µM and a CC50 [9] greater than 100 µM. For the same compound, the IC50 (Human rhinovirus sp. [10]) was greater than 1.23 µM, the IC50 (Yellow fever virus) was greater than 100 µM and the IC50 (Enterovirus A71) was greater than 100 µM. The selectivity ratio [22] was greater than 2.43, the MIC (Staphylococcus aureus [12]) was 240 µM (≈ 160 µg/mL) and the IC50 (Human rhinovirus sp. [13]) was 41.1 µM. It also gave an MIC (Pseudomonas aeruginosa [14]) of 3750 µM (≈ 2500 µg/mL), an MBC (Enterococcus faecalis [15]) of 120 µM (≈ 80 µg/mL) and an MIC (Escherichia coli [16]) of 950 µM (≈ 633 µg/mL). It also gave a Ratio (Staphylococcus aureus [17]) of 1, an MBC (Escherichia coli [18]) of 1880 µM (≈ 1250 µg/mL) and an IC50 (Zika virus) greater than 100 µM. The Ratio (Escherichia coli [19]) was 1.98, the Ratio (Pseudomonas aeruginosa [20]) was 1.99 and the CC50 [21] was greater than 100 µM. It also gave an IC50 (Chikungunya virus) of 40 µM.
